Data set [1] is described as follows: Cytotoxicity assay (Cell Titer Glo). To be noted: African green monkey, CC50 (μM), Vero cells. (In general: Cellular ATP, detected with luciferase, serves as a proxy for viable cell number.)
Data set [2] concerns EV-A71. Put plainly: CPE inhibition assay (Cell Titer Glo) against EV-A71 in Vero cells. The settings on record: for Selectivity Index: CC50/IC50; for anti-viral activity of analogs of Compound T3 (luminescence above 3SD cutoff): single concentration 25 μM; for anti-viral activity (luminescence above 3SD cutoff): single concentration 50 μM; for selectivity index: from IC50 and CC50. Type of data set: cell-based, Enterovirus A71.

The target in data set [3] is T1, EV-A71 Δ2C^116-329 (Human enterovirus 71, UniProt Q66478).
T1 construct: EV-A71 Δ2C (amino acids 116-329) was designed with; made in house; host or cells: E. coli Rosetta 2(DE3) pLysS, pMALc5x vector
T1 sequence (Q66478 1227-1440, stated change not applied): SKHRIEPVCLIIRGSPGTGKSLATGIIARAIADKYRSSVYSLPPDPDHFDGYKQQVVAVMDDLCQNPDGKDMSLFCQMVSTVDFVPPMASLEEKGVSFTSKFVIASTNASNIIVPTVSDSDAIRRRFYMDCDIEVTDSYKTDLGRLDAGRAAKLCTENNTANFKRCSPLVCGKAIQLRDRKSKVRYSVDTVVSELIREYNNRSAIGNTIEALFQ
As to the kind of experiment: biochemical. The settings on record: for inhibition of the ATPase function of Δ2C^116-329 (absorbance below 3SD cutoff): single concentration 50 μM. Type of data set: biochemical.

A short description of data set [4]: in vitro. The settings on record: African green monkey.
For data set [5], the target named is T2, EV-A71 Δ2C^116-329 (2C ATPase) (Enterovirus A71, UniProt B9VUU3).
T2 construct: Ni-NTA and SEC purified
T2 sequence (B9VUU3 1227-1440, stated change not applied): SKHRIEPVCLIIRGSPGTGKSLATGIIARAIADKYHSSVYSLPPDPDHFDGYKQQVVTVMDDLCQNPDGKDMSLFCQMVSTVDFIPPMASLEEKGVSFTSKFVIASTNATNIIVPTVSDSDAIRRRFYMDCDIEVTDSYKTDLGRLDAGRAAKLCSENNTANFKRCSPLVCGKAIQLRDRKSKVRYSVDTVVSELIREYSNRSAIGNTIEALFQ
As to the kind of experiment: 2C ATPase inhibition assay (colorimetric malachite green, dose response). Type of data set: biochemical.

For data set [6], the system named is EV-A71-TN (VP1-T237N mutant). Type of data set: cell-based, Enterovirus A71. The settings on record: 500 μM compound; Vero cells.
Data set [7] deals with wild type EV-A71 (WT). Type of data set: cell-based. The settings on record: 500 μM compound; Vero cells.
The subject of data set [8] is Vero cells. As to the kind of experiment: Cytotoxicity assay (Cell Titer Glo). To be noted: for CC50: Vero cells.
The target in data set [9] is EV-A71 Δ2C^116-329. To be noted: previously observed; cited from earlier work.
[10] abbreviates: Enterovirus A, EVA71, Table 10, Scaffold 1, EV-A71, Vero cells, read-out: IC50.
Where [11] appears, read: Enterovirus A, EVA71, Table 8, virus-induced CPE, EV-A71, Vero cells, read-out: IC50.
Where [12] appears, read: Enterovirus A, EVA71, Table 12, Scaffold 3, EV-A71, Vero cells, read-out: IC50.
[13] abbreviates: Enterovirus A, EVA71, EV-A71, Vero cells, read-out: IC50 for inhibition of virus-induced CPE.
Where [14] appears, read: Enterovirus A, EVA71, Table 7, EV-A71, Vero cells, read-out: IC50.

The text below walks through data of US20240131007A1, “METHODS AND COMPOSITIONS FOR PICORNAVIRUS ANTI-VIRAL AGENTS” (University of Connecticut, priority 2022, published 2024).

“Also recorded” adds a separate entry of the source. Counter-ions that a name gives are not always drawn. Like-named read-outs stand apart in the source and are kept apart here. Bounds are passed on as bounds.

Usually IC50 stands for the point on the concentration scale where inhibition reaches its midpoint.

On to `O=C(Cc1cccs1)Nc1ccc(-c2nc3ccccc3[nH]2)cc1` [Compound 9, N-[4-(1H-benzimidazol-2-yl)phenyl]-2-(2-thienyl)acetamide], for which the CC50 at 3 days in data set [1] (Table 10, Scaffold 1) stood at 338 µM. The IC50 in data set [2] (setting [10]) stood at 104 µM. Besides, the “Selectivity Index” value in data set [2] (Table 10, Scaffold 1) is recorded as 3.26.

In turn, `O=C(Nc1ccc(-c2nc3ccccc3[nH]2)cc1)c1c(F)c(F)c(F)c(F)c1F` [Compound 16, N-[4-(1H-benzimidazol-2-yl)phenyl]-2,3,4,5,6-pentafluorobenzamide] yielded a CC50 at 3 days in data set [1] (Table 10, Scaffold 1) above 400 µM. Moreover, the concentration for half-maximal inhibition (IC50) in [2] (setting [10]) is above 25 µM.

Consider `O=C(C=Cc1ccco1)Nc1ccc(-c2nc3ccccc3[nH]2)cc1` [Compound 20, N-[4-(1H-benzimidazol-2-yl)phenyl]-3-(2-furyl)acrylamide], for which the CC50 at 3 days in data set [1] (Table 10, Scaffold 1) was above 400 µM. Besides, the IC50 in [3] is 18.1 µM; in data set [2] (setting [10]), 5.41 µM. Besides, in data set [2] (Table 10, Scaffold 1), the “Selectivity Index” value was above 73.94.

Turning to `O=C(CSc1ccc(Cl)cc1)Nc1ccc(-c2nc3ccccc3[nH]2)cc1` [Compound 25, N-[4-(1H-benzimidazol-2-yl)phenyl]-2-[(4-chlorophenyl)thio]acetamide], the CC50 at 3 days in [1] (Table 10, Scaffold 1) came to 582 µM. The IC50 in [2] (setting [10]) was above 25 µM.

Consider `Cc1ccc2[nH]c(-c3ccc(NC(=O)Cc4cccs4)cc3)nc2c1` [Compound 35, N-[4-(5-methyl-1H-benzimidazol-2-yl)phenyl]-2-(2-thienyl)acetamide], for which the CC50 at 3 days in data set [1] (Table 10, Scaffold 1) is above 400 µM. Further, the IC50 in data set [2] (setting [10]) was above 25 µM.

In data set [4] (CC50 (μM)), `O=C(Nc1ccc(-c2nc3cc4ccccc4cc3[nH]2)cc1)c1cccc(Br)c1` [Compound 48, 3-bromo-N-[4-(1H-naphtho[2,3-d]imidazol-2-yl)phenyl]benzamide] came in with a CC50 at 3 days of 302 µM. For the same compound, the values for the IC50 in data set [3] and in data set [2] (setting [11]) were 33.1 µM and 0.71 µM, respectively. In addition, the “Selectivity Index” value in data set [2] (Table 8) was 426.06; in data set [2] (Table 11, Scaffold 2), 426.06.

`O=C(Nc1ccc2[nH]c(-c3ccc(Br)o3)nc2c1)c1ccc([N+](=O)[O-])cc1` [Compound 51, N-[2-(5-bromo-2-furyl)-1H-benzimidazol-5-yl]-4-nitrobenzamide] showed a CC50 at 3 days in data set [4] (CC50 (μM)) of 126 µM. Further, the IC50 in [3] was determined as 54.1 µM; in [2] (setting [12]), 72.4 µM. Besides, the “Selectivity Index” value in [2] (Table 12, Scaffold 3) was determined as 1.74.

For `CC(=O)Nc1ccc2[nH]c(-c3ccc(Br)o3)nc2c1` [Compound 52, N-[2-(5-bromo-2-furyl)-1H-benzimidazol-5-yl]acetamide], the CC50 at 3 days in data set [1] (Table 12, Scaffold 3) was 9.2 µM. Besides, in data set [2] (setting [12]), the IC50 was found to be 7.1 µM. Besides, the “Selectivity Index” value in [2] (Table 12, Scaffold 3) amounted to 1.30.

For `Cc1ccc(-c2nc3cc(NC(=O)c4cccs4)ccc3[nH]2)o1` [Compound 55, N-[2-(5-methyl-2-furyl)-1H-benzimidazol-5-yl]-2-thiophenecarboxamide], the CC50 at 3 days in data set [1] (Table 12, Scaffold 3) is above 400 µM. The IC50 in data set [2] (setting [12]) is above 25 µM.

In [1] (Table 12, Scaffold 3), `O=C(Nc1ccc2[nH]c(-c3cccs3)nc2c1)c1cccs1` [Compound 56, N-[2-(2-thienyl)-1H-benzimidazol-5-yl]-2-thiophenecarboxamide] displayed a CC50 at 3 days of 123 µM. Further, in data set [2] (setting [12]), the IC50 was 20 µM. Besides, the “Selectivity Index” value in data set [2] (Table 12, Scaffold 3) amounted to 6.17. Further, the “anti-viral activity of analogs of Compound T3 (luminescence above 3SD cutoff)” value in data set [2] (EV-A71, Vero cells) is recorded as “have activity”.

Take `O=C(Nc1ccc2[nH]c(-c3ccco3)nc2c1)c1cccs1` [Compound 57, N-[2-(2-furyl)-1H-benzimidazol-5-yl]-2-thiophenecarboxamide]: the CC50 at 3 days amounted to 8.5 µM in [1] (Table 8) and 8.5 µM in data set [1] (Table 12, Scaffold 3). Further, in data set [2] (setting [11]), the IC50 amounted to 2.75 µM. Besides, the “Selectivity Index” value in data set [2] (Table 8) is 3.09; in data set [2] (Table 12, Scaffold 3) it was 3.09. Further, in data set [2] (EV-A71, Vero cells), the “anti-viral activity of analogs of Compound T3 (luminescence above 3SD cutoff)” value is “have activity”.

In the case of `Cc1ccc2nc(-c3cccc(NC(=O)c4ccco4)c3)[nH]c2c1` [Compound 63, N-[3-(6-methyl-1H-benzimidazol-2-yl)phenyl]-2-furamide], the CC50 at 3 days in [1] (Table 13, Scaffold 4) turned out to be 131 µM. Further, the IC50 in [2] (Enterovirus A, EVA71, Table 13, Scaffold 4, EV-A71, Vero cells, read-out: IC50) was found to be 24.8 µM. Also, the “Selectivity Index” value in [2] (Table 13, Scaffold 4) was 5.28.

Take `OC(COC(c1ccc(F)cc1)c1ccc(F)cc1)Cn1cnc2cc(F)c(F)cc21` (centres unmarked) [Compound 108, 1-[bis(4-fluorophenyl)methoxy]-3-(5,6-difluoro-1H-1,3-benzodiazol-1-yl)propan-2-ol]: in [3], the “inhibition of the ATPase function of Δ2C^116-329 (absorbance below 3SD cutoff)” value is “inhibited 2C ATPase; also recorded: inhibited the ATPase function”. The compound further displayed an IC50 in data set [5] of 57.3 µM. Also, the “anti-viral activity (luminescence above 3SD cutoff)” value in data set [2] (EV-A71, Vero cells) is listed as “did not show activity above the threshold value”.

For `Nc1nc(N)nc(COC(=O)CCc2c(-c3ccc(F)cc3)[nH]c3ccc(F)cc23)n1` [Compound 111, (4,6-diamino-1,3,5-triazin-2-yl)methyl 3-[5-fluoro-2-(4-fluorophenyl)-1H-indol-3-yl]propanoate], the CC50 at 3 days in data set [4] (CC50) and in data set [4] (CC50 (μM)) was 422 µM in each case. Besides, the “inhibition of the ATPase function of Δ2C^116-329 (absorbance below 3SD cutoff)” value in data set [3] is given as “inhibited 2C ATPase; also recorded: inhibited the ATPase function”. Further, the IC50 in data set [5] amounted to 7.5 µM; in data set [2] (setting [13]), 44.7 µM; in data set [2] (setting [14]), 44.7 µM. Besides, in data set [2] (Table 7), the “Selectivity Index” value is recorded as 9.44. The compound also showed a selectivity index in data set [2] of 9.44. Further, in [2] (EV-A71, Vero cells), the “anti-viral activity (luminescence above 3SD cutoff)” value was “inhibited EV-A71”.

As for `O=c1nc(C=Cc2cn(Cc3ccccc3Cl)c3ccccc23)cc(C(F)(F)F)[nH]1` [Compound 139, 4-(2-{1-[(2-chlorophenyl)methyl]-1H-indol-3-yl}ethenyl)-6-(trifluoromethyl)-1,2-dihydropyrimidin-2-one], the “inhibition of the ATPase function of Δ2C^116-329 (absorbance below 3SD cutoff)” value in [3] is on record as “inhibited 2C ATPase; also recorded: inhibited the ATPase function”. In data set [5], this compound displayed an IC50 of 71.3 µM. In data set [2] (EV-A71, Vero cells), the “anti-viral activity (luminescence above 3SD cutoff)” value is on record as “did not show activity above the threshold value”.

With `O=C(Cn1nc2c(Oc3cccc(F)c3)nccn2c1=O)Nc1cccc(Cl)c1` [Compound 167, N-(3-chlorophenyl)-2-[8-(3-fluorophenoxy)-3-oxo-2H,3H-[1,2,4]triazolo[4,3-a]pyrazin-2-yl]acetamide], the CC50 at 3 days in data set [4] (CC50) is above 400 µM; in data set [4] (CC50 (μM)) it was above 1000 µM. Also, the “inhibition of the ATPase function of Δ2C^116-329 (absorbance below 3SD cutoff)” value in data set [3] is listed as “inhibited 2C ATPase; also recorded: inhibited the ATPase function”. Besides, the “decrease in viral titer vs DMSO” value is around 5 fold in [6] and around 100 fold in data set [7]. Besides, the IC50 was determined as 61.2 µM in [5], 59.4 µM in [2] (setting [13]) and 59.4 µM in data set [2] (setting [14]). The “Selectivity Index” value in data set [2] (Table 7) is on record as above 16.8. The selectivity index in data set [2] is recorded as above 16.8. In [2] (EV-A71, Vero cells), the “anti-viral activity (luminescence above 3SD cutoff)” value is “inhibited EV-A71”.

Regarding `Cc1ccc2[nH]c(-c3ccc(NC(=O)c4ccco4)cc3)nc2c1` [Compound T3, N-[4-(5-methyl-1H-benzimidazol-2-yl)phenyl]-2-furamide], the “toxicity to Vero cells” value in data set [8] (up to 200 μM) is “no toxicity”. For the same compound, the CC50 at 3 days in data set [1] (Table 6) is above 200 µM. Also, the concentration for half-maximal inhibition (IC50) in data set [2] (setting [13]) came out at 2.9 µM; in [2] (Enterovirus A, EVA71, Table 6, EV-A71, Vero cells, read-out: IC50) it was 2.9 µM. The “Selectivity Index” value in [2] (Table 6) is listed as above 68.97. Moreover, the selectivity index in [2] is reported as above 68.9.

In data set [8] (Table 6), `Cc1[nH]c2ccc(Br)cc2c1CCN` [Compound T5, [2-(5-bromo-2-methyl-1H-indol-3-yl)ethyl]aminehydrochloride] showed a CC50 of 61.6 µM. Further, in data set [2] (Table 6, EV-A71, Vero cells, read-out: IC50), the IC50 stood at 103 µM.

Consider `Cl.N=C(N)N` [GnHCl, Guanidinium hydrochloride, reference compound], for which the values for the 50% inhibitory concentration (IC50) in data set [3] (read-out: IC50 for ATPase inhibition) and in data set [2] (read-out: IC50 for inhibition of EV-A71) were 83600 µM and 140 µM, respectively. In [9], the “IC50 for inhibition of the ATPase activity of 2C” value is “millimolar range”.

In the case of “N-[4-(1H-benzimidazol-2-yl)phenyl]-2-(3-4-phenylthio)acetamide [Compound 22]”, in data set [8] (Table 10, Scaffold 1), the CC50 amounted to 761 µM.

In the case of “N-[4-(5-methyl-1H-benzimidazol-2-yl)phenyl]-2-(3-7-phenylthio)acetamide [Compound 42]”, the CC50 in data set [8] (Table 10, Scaffold 1) was 684 µM. Also, the IC50 in [2] (Table 10, Scaffold 1, EV-A71, Vero cells, read-out: IC50) is 6.99 µM.
